Assay results as given in US7138361B2, “Herbicidal heterocycles” (E. I. du Pont de Nemours and Company, priority 2000, dated 2006).

Assays:
Format in all cases: in vivo
[1] = test system: morning glory (Ipomoea hederacea); assay: Test B postemergence; details: Rate 500 g/ha, scale 0 to 100, 0 is no effect, 100 is complete control, 13 to 15 days
Excerpt: (§1) Seeds selected from barnyardgrass (Echinochloa crus-galli), Surinam grass (Brachiaria decumbens), cocklebur (Xanthium strumarium), corn (Zea mays), crabgrass (Digitaria sanguinalis), giant foxtail (Setaria faberii), lambsquarters (Chenopodium album), morning glory (Ipomoea hederacea), pigweed (Amaranthus retroflexus), rice (Oryza saliva) and velvetleaf (Abutilon theophrasti) were planted and treated preemergence with test chemicals formulated in a non-phytotoxic solvent mixture which included a surfactant.
(§2) At the same time, plants selected from these crop and weed species and also blackgrass (Alopecurus myosuroides), wheat (Triticum aestivum) and wild oat (Avena fatua) were treated with postemergence applications of test chemicals formulated in the same manner. Plants ranged in height from 2 to 18 cm (1- to 4-leaf stage) for postemergence treatments. Plant species in the flooded paddy test consisted of rice (Oryza saliva), smallflower flatsedge (Cyperus difformis), duck salad (Heteranthera limosa) and barnyardgrass (Echinochloa crus-galli) grown to the 2-leaf stage for testing. Treated plants and controls were maintained in a greenhouse for 13 to 15 days, after which time all species were compared to controls and visually evaluated. Plant response ratings, summarized in Table B, are based on a scale of 0 to 100 where 0 is no effect and 100 is complete control. A dash (-) response means no test result.

corn (Zea mays) [2] = assay: Test B postemergence; details: 13 to 15 days
Excerpt: as §1, §2

[3] = test system: lambsquarters (Chenopodium album); assay: Test B postemergence; details: Rate 500 g/ha, scale 0 to 100, 0 is no effect, 100 is complete control, 13 to 15 days
Excerpt: as §1, §2

[4] = test system: velvetleaf (Abutilon theophrasti); assay: Test B postemergence; details: Rate 500 g/ha, scale 0 to 100, 0 is no effect, 100 is complete control, 13 to 15 days
Excerpt: as §1, §2

[5] = test system: giant foxtail (Setaria faberii); assay: Test B postemergence; details: 13 to 15 days
Excerpt: as §1, §2

[6] = test system: crabgrass (Digitaria sanguinalis); assay: Test B postemergence; details: 13 to 15 days
Excerpt: as §1, §2

[7] = test system: pigweed (Amaranthus retroflexus); assay: Test B postemergence; details: Rate 500 g/ha, scale 0 to 100, 0 is no effect, 100 is complete control, 13 to 15 days
Excerpt: as §1, §2

[8] = test system: Surinam grass (Brachiaria decumbens); assay: Test B postemergence; details: 13 to 15 days
Excerpt: as §1, §2

[9] = test system: barnyardgrass (Echinochloa crus-galli); assay: Test B postemergence; details: 13 to 15 days
Excerpt: as §1, §2

[10] = test system: blackgrass (Alopecurus myosuroides); assay: Test B postemergence; details: 13 to 15 days
Excerpt: as §1, §2

[11] = test system: wheat (Triticum aestivum); assay: Test B postemergence; details: Rate 500 g/ha, scale 0 to 100, 0 is no effect, 100 is complete control, 13 to 15 days
Excerpt: as §1, §2

wild oat (Avena fatua) = assay: Test B postemergence; details: Rate 500 g/ha, scale 0 to 100, 0 is no effect, 100 is complete control, 13 to 15 days
Excerpt: as §1, §2

[12] = test system: morning glory (Ipomoea hederacea); assay: Test B preemergence
Excerpt: as §1, §2

corn (Zea mays) [13] = assay: Test B preemergence
Excerpt: as §1, §2

[14] = test system: lambsquarters (Chenopodium album); assay: Test B preemergence
Excerpt: as §1, §2

[15] = test system: velvetleaf (Abutilon theophrasti); assay: Test B preemergence
Excerpt: as §1, §2

[16] = test system: giant foxtail (Setaria faberii); assay: Test B preemergence
Excerpt: as §1, §2

[17] = test system: crabgrass (Digitaria sanguinalis); assay: Test B preemergence
Excerpt: as §1, §2

[18] = test system: cocklebur (Xanthium strumarium); assay: Test B preemergence
Excerpt: as §1, §2

[19] = test system: pigweed (Amaranthus retroflexus); assay: Test B preemergence
Excerpt: as §1, §2

rice (Oryza saliva) [20] = assay: Test B preemergence
Excerpt: as §1, §2

[21] = test system: Surinam grass (Brachiaria decumbens); assay: Test B preemergence
Excerpt: as §1, §2

[22] = test system: barnyardgrass (Echinochloa crus-galli); assay: Test B preemergence
Excerpt: as §1, §2

[23] = test system: duck salad (Heteranthera limosa); assay: Test C flooded paddy test; details: for Ducksalad plant response rating: Flooded Paddy, scale 0 to 100, 0 no effect, 100 complete control; for Plant response rating, Ducksalad: flooded paddy test, scale 0 to 100 (0 no effect, 100 complete control)
Procedure: (§3) At the same time, plants selected from these crop and weed species and also winter barley (Hordeum vulgare), blackgrass (Alopecurus myosuroides), canary grass (Phalaris minor), chickweed (Stellaria media), downy brome (Bromus tectorum), green foxtail (Setaria viridis), Italian ryegrass (Lolium multiflorum), wheat (Triticum aestivum), wild oat (Avena fatua) and windgrass (Apera spica-venti) were treated with postemergence applications of some of the test chemicals formulated in the same manner. Plants ranged in height from 2 to 18 cm (1- to 4-leaf stage) for postemergence treatments. Plant species in the flooded paddy test consisted of rice (Oryza saliva), smallflower flatsedge (Cyperus difformis), duck salad (Heteranthera limosa) and barnyardgrass (Echinochloa crus-galli) grown to the 2-leaf stage for testing. Treated plants and controls were maintained in a greenhouse for 12 to 14 days, after which time all species were compared to controls and visually evaluated. Plant response ratings, summarized in Table C, are based on a scale of 0 to 100 where 0 is no effect and 100 is complete control. A dash (-) response means no test result.

[24] = test system: smallflower flatsedge (Cyperus difformis); assay: Test C flooded paddy test; details: for Flatsedge plant response rating: Flooded Paddy, scale 0 to 100, 0 no effect, 100 complete control; for Plant response rating, Flatsedge: flooded paddy test, scale 0 to 100 (0 no effect, 100 complete control)
Procedure: as §3

rice (Oryza saliva) [25] = assay: Test C flooded paddy test; details: for Rice plant response rating: Flooded Paddy, scale 0 to 100, 0 no effect, 100 complete control; for Plant response rating, Rice: flooded paddy test, scale 0 to 100 (0 no effect, 100 complete control)
Procedure: as §3

[26] = test system: barnyardgrass (Echinochloa crus-galli); assay: Test C flooded paddy test; details: for Barnyardgrass plant response rating: Flooded Paddy, scale 0 to 100, 0 no effect, 100 complete control; for Plant response rating, Barnyardgrass: flooded paddy test, scale 0 to 100 (0 no effect, 100 complete control)
Procedure: as §3

[27] = Rate 125 g/ha, scale 0 (no effect) to 100 (complete control)
[28] = Rate 500 g/ha, scale 0 to 100, 0 is no effect, 100 is complete control
[29] = Preemergence, Rate 500 g/ha, scale 0 to 100, 0 no effect, 100 complete control
[30] = preemergence, Rate 125 g/ha, scale of 0 to 100 where 0 is no effect and 100 is complete control, 13 to 15 days

Compound: CC(C)(C)c1ccn(C2CCN(c3cccc(C#N)c3)C2=O)n1 (stereo not shown) [Compound 104]
- Plant response rating, Morningglory [1]: 0
- Plant response rating, Corn (corn (Zea mays) [2]; [27]): 0
- Plant response rating, Corn (corn (Zea mays) [2]; [28]): 0
- Plant response rating, Lambsquarters [3]: 0
- Plant response rating, Velvetleaf [4]: 0
- Plant response rating, Foxtail, Giant [5, 27]: 0
- Plant response rating, Foxtail, Giant [5, 28]: 0
- Plant response rating, Crabgrass [6, 27]: 0
- Plant response rating, Crabgrass [6, 28]: 0
- Plant response rating, Pigweed [7]: 0
- Plant response rating, Surinam grass [8, 27]: 0
- Plant response rating, Surinam grass [8, 28]: 0
- Plant response rating, Barnyardgrass [9, 27]: 0
- Plant response rating, Barnyardgrass [9, 28]: 0
- Plant response rating, Blackgrass [10, 27]: 0
- Plant response rating, Blackgrass [10, 28]: 0
- Plant response rating, Wheat [11]: 0
- Plant response rating, Wild Oat (wild oat (Avena fatua)): 0
- Plant response rating, Morningglory [12, 29]: 0
- Plant response rating, Morningglory [12, 30]: 0
- Plant response rating, Corn (corn (Zea mays) [13]; [29]): 0
- Plant response rating, Corn (corn (Zea mays) [13]; [30]): 0
- Plant response rating, Lambsquarters [14, 29]: 100
- Plant response rating, Lambsquarters [14, 30]: 100
- Plant response rating, Velvetleaf [15, 29]: 0
- Plant response rating, Velvetleaf [15, 30]: 0
- Plant response rating, Foxtail, Giant [16, 29]: 0
- Plant response rating, Foxtail, Giant [16, 30]: 0
- Plant response rating, Crabgrass [17, 29]: 0
- Plant response rating, Crabgrass [17, 30]: 0
- Plant response rating, Cocklebur [18, 29]: 0
- Plant response rating, Cocklebur [18, 30]: 0
- Plant response rating, Pigweed [19, 29]: 100
- Plant response rating, Pigweed [19, 30]: 70
- Plant response rating, Rice (rice (Oryza saliva) [20]; [29]): 0
- Plant response rating, Rice (rice (Oryza saliva) [20]; [30]): 0
- Plant response rating, Surinam grass [21, 29]: 0
- Plant response rating, Surinam grass [21, 30]: 0
- Plant response rating, Barnyardgrass [22, 29]: 0
- Plant response rating, Barnyardgrass [22, 30]: 0
- Ducksalad plant response rating ([23]; Rate 250 g/ha): 0
- Ducksalad plant response rating ([23]; Rate 500 g/ha): 0
- Plant response rating, Ducksalad ([23]; Rate 62 g/ha): 0
- Plant response rating, Ducksalad ([23]; Rate 125 g/ha): 0
- Flatsedge plant response rating ([24]; Rate 250 g/ha): 0
- Flatsedge plant response rating ([24]; Rate 500 g/ha): 0
- Plant response rating, Flatsedge ([24]; Rate 62 g/ha): 0
- Plant response rating, Flatsedge ([24]; Rate 125 g/ha): 0
- Rice plant response rating (rice (Oryza saliva) [25]; Rate 250 g/ha): 0
- Rice plant response rating (rice (Oryza saliva) [25]; Rate 500 g/ha): 0
- Plant response rating, Rice (rice (Oryza saliva) [25]; Rate 62 g/ha): 0
- Plant response rating, Rice (rice (Oryza saliva) [25]; Rate 125 g/ha): 0
- Barnyardgrass plant response rating ([26]; Rate 250 g/ha): 0
- Barnyardgrass plant response rating ([26]; Rate 500 g/ha): 0
- Plant response rating, Barnyardgrass ([26]; Rate 62 g/ha): 0
- Plant response rating, Barnyardgrass ([26]; Rate 125 g/ha): 0

Compound: CCCCC(C)c1ccn(C2OCN(c3cccc(C(F)(F)F)c3)C2=O)n1 (stereo not shown) [Compound 98]
- Plant response rating, Morningglory [1]: 0
- Plant response rating, Corn (corn (Zea mays) [2]; [27]): 0
- Plant response rating, Corn (corn (Zea mays) [2]; [28]): 0
- Plant response rating, Lambsquarters [3]: 80
- Plant response rating, Velvetleaf [4]: 20
- Plant response rating, Foxtail, Giant [5, 27]: 0
- Plant response rating, Foxtail, Giant [5, 28]: 20
- Plant response rating, Crabgrass [6, 27]: 0
- Plant response rating, Crabgrass [6, 28]: 20
- Plant response rating, Pigweed [7]: 100
- Plant response rating, Surinam grass [8, 27]: 0
- Plant response rating, Surinam grass [8, 28]: 0
- Plant response rating, Barnyardgrass [9, 27]: 0
- Plant response rating, Barnyardgrass [9, 28]: 0
- Plant response rating, Blackgrass [10, 27]: 0
- Plant response rating, Blackgrass [10, 28]: 0
- Plant response rating, Wheat [11]: 0
- Plant response rating, Wild Oat (wild oat (Avena fatua)): 0
- Plant response rating, Morningglory [12, 29]: 0
- Plant response rating, Morningglory [12, 30]: 0
- Plant response rating, Corn (corn (Zea mays) [13]; [29]): 0
- Plant response rating, Corn (corn (Zea mays) [13]; [30]): 0
- Plant response rating, Lambsquarters [14, 29]: 100
- Plant response rating, Lambsquarters [14, 30]: 60
- Plant response rating, Velvetleaf [15, 29]: 0
- Plant response rating, Velvetleaf [15, 30]: 0
- Plant response rating, Foxtail, Giant [16, 29]: 90
- Plant response rating, Foxtail, Giant [16, 30]: 0
- Plant response rating, Crabgrass [17, 29]: 100
- Plant response rating, Crabgrass [17, 30]: 0
- Plant response rating, Cocklebur [18, 29]: 0
- Plant response rating, Cocklebur [18, 30]: 0
- Plant response rating, Pigweed [19, 29]: 40
- Plant response rating, Pigweed [19, 30]: 0
- Plant response rating, Rice (rice (Oryza saliva) [20]; [29]): 30
- Plant response rating, Rice (rice (Oryza saliva) [20]; [30]): 0
- Plant response rating, Surinam grass [21, 29]: 0
- Plant response rating, Surinam grass [21, 30]: 0
- Plant response rating, Barnyardgrass [22, 29]: 90
- Plant response rating, Barnyardgrass [22, 30]: 0
- Ducksalad plant response rating ([23]; Rate 250 g/ha): 0
- Ducksalad plant response rating ([23]; Rate 500 g/ha): 0
- Plant response rating, Ducksalad ([23]; Rate 62 g/ha): 0
- Plant response rating, Ducksalad ([23]; Rate 125 g/ha): 0
- Flatsedge plant response rating ([24]; Rate 250 g/ha): 90
- Flatsedge plant response rating ([24]; Rate 500 g/ha): 90
- Plant response rating, Flatsedge ([24]; Rate 62 g/ha): 60
- Plant response rating, Flatsedge ([24]; Rate 125 g/ha): 80
- Rice plant response rating (rice (Oryza saliva) [25]; Rate 250 g/ha): 50
- Rice plant response rating (rice (Oryza saliva) [25]; Rate 500 g/ha): 50
- Plant response rating, Rice (rice (Oryza saliva) [25]; Rate 62 g/ha): 0
- Plant response rating, Rice (rice (Oryza saliva) [25]; Rate 125 g/ha): 50
- Barnyardgrass plant response rating ([26]; Rate 250 g/ha): 30
- Barnyardgrass plant response rating ([26]; Rate 500 g/ha): 50
- Plant response rating, Barnyardgrass ([26]; Rate 62 g/ha): 0
- Plant response rating, Barnyardgrass ([26]; Rate 125 g/ha): 0
